Measured values from article PMC7883726 (Acta Pharmaceutica Sinica. B, 2021).
pEC50: −log10 of the molar value. “Also recorded” adds a separate entry of the source. Like-named read-outs stand apart in the source and are kept apart here.

Assays:
HEK293T cells = settings: below 50 μmol/L, CCK-8
HCoV-OC43 = HCoV-OC43 cytopathic effects; type: cell-based
SARS-CoV-2 = settings: read-out: EC50 SARS-CoV-2 in vitro; cited from earlier work
[1] = cited from earlier work
SARS-CoV-2 Mpro = SARS-CoV-2 Mpro (Severe acute respiratory syndrome coronavirus 2, UniProt P0DTD1); assay: SARS-CoV-2 Mpro enzyme activity inhibition assay; type: biochemical; settings: 10 μmol/L
[2] = orally administered, cited from earlier work
SARS-CoV-2 RdRp [3] = biological target: T1, SARS-CoV-2 RdRp (Severe acute respiratory syndrome coronavirus 2, UniProt P0DTD1); assay: biochemical; settings: read-out: inhibition of polymerase activity
[4] = biological target: SARS-CoV-2 RdRp with nsp10–nsp14 exoribonuclease complex (Severe acute respiratory syndrome coronavirus 2, UniProt P0DTD1); type: cell-based; settings: with versus without nsp10–nsp14
SARS-CoV-2 RdRp [5] = biological target: T1, SARS-CoV-2 RdRp; assay: cell-based
[6] = rats, orally administered; cited from earlier work

Row | SMILES | cytotoxicity on HEK293T cells (HEK293T cells) | concentration protecting cells from CPE induced by HCoV-OC43 (HCoV-OC43) [µmol/L] | pEC50 (SARS-CoV-2) | LD50 [1] | acute dose showing maximum tolerance [1] | toxicity in acute toxicity studies ([1]; oral) | inhibitory effect on SARS-CoV-2 Mpro (SARS-CoV-2 Mpro) | half lifetime (t1/2) ([2]; mice and rats) | time to Cmax (Tmax) ([2]; mice and rats) [h] | maximum plasma concentration (Cmax) ([2]; mice) [µg/mL] | inhibition at 2.5 µM (SARS-CoV-2 RdRp [3]) [%] | inhibition at 10 µM (SARS-CoV-2 RdRp [3]) [%] | inhibition at 40 µM (SARS-CoV-2 RdRp [3]) [%] | fold increase in EC50 on expression of nsp10–nsp14 [4] | pEC50 (SARS-CoV-2 RdRp [5]) | maximum plasma concentration (Cmax) [6] [µg/mL]
1 | CCC(CC)COC(=O)[C@H](C)N[P@](=O)(OC[C@H]1O[C@@](C#N)(c2ccc3c(N)ncnn23)[C@H](O)[C@@H]1O)Oc1ccccc1 [remdesivir, reference compound] | Neither remdesivir nor RAI-S-37 showed cytotoxicity | 0.39 | – | – | – | – | – | – | – | – | – | – | – | – | – | –
2 | NC(=O)c1ncn([C@@H]2O[C@H](CO)[C@@H](O)[C@H]2O)n1 [ribavirin] | – | – | 3.96 | – | – | – | – | – | – | – | – | – | – | – | – | –
3 | O=C(O[C@@H]1O[C@@H]2COC(=O)c3cc(O)c(O)c(O)c3-c3c(cc(O)c(O)c3O)C(=O)O[C@H]([C@H]1O)[C@@H]2O)c1cc(O)c(O)c(O)c1 [RAI-S-37, Corilagin] | Neither remdesivir nor RAI-S-37 showed cytotoxicity | 0.78 | – | 3500–5000 mg/kg b. wt. | up to 3500 mg/kg body weight (b.wt.) | did not show any toxicity | did not show any inhibitory effect | about 6 h | ~2 | 57.0 | 24 | 73 | 83 | same EC50 values; also recorded: remain the same | 5.48 | 52.37
